Source: publication PMC8861431, “Tissue Pharmacokinetic Properties and Bystander Potential of Hypoxia-Activated Prodrug CP-506 by Agent-Based Modelling” (Frontiers in Pharmacology, 2022)

What was measured:
POR-R MCLs = assay: Multicellular layer (MCL) flux studies / (pro)drug transport model; format: in vitro ADME, human; conditions: for D s: diffusion coefficient in spheroid: Table 1
Procedure: The extravascular transport properties of CP-506 and its formed metabolites were investigated using a custom-designed diffusion apparatus, as described previously ([Hicks et al., 2006]). Briefly, MCL cultures were established by seeding 1 x 10^6 POR-R cells onto collagen-coated Millicell-CM inserts for 3 days. Established MCLs were placed at the interface of the two media-filled compartments of diffusion chambers. Diffusion chambers were placed in a 37°C water bath and gassed with a supraoxic (95% O2, 5% CO2) or anoxic (5% CO2, bal N2) mixture for at least 1 h prior to drug addition. Flux was initiated by the addition of internal standard ([^14C]-urea) and 20 µM CP-506 to the donor compartment. Samples (100 µl) were collected from both the donor and receiver compartments for up to 5 h thereafter. At each time point, a 25 µl aliquot was mixed with emulsifier-safe water-accepting scintillant and assayed for radioactivity using a Perkin Elmer Tricard 2910 TR liquid scintillation analyser. The remaining sample was treated with two volumes of ice-cold acetonitrile (containing 2 µM of the relevant deuterated internal standards) and stored at −80°C until LC-MS/MS analysis. Similar experiments were performed using collagen-coated inserts without MCLs to deduce the chemical stability and diffusion coefficient of CP-506 across the bare support membrane.
Drug transport in MCLs was modelled as a one-dimensional diffusion with reaction across four consecutive compartments (stirred donor, POR-R MCL, collagen-coated teflon support membrane and stirred receiver) using a custom designed MatLab routine ([Foehrenbacher et al., 2013a]). Model parameters were derived by fitting Eq. 1 and Eq. 2 to the measured concentration-time profile of internal standard [^14C]-urea, CP-506, CP-506H and CP-506M in MCL flux studies. The flux of CP-506 and its metabolites across POR-R MCLs was described using Fick’s second law with a reaction term: ∂CeN/∂t=DN∂^2CeN/∂x^2−klossNCeN− φ( kinNCeN− koutNCiN) (1) ∂CiN/∂t= kmet0(N−1)Ci(N−1)+φ(kinNCeN− koutNCiN)−kmet0NCiN (2) where C is the concentration of the diffusing substance at position x and time t in the extracellular (e) or intracellular (i) compartment, D is the diffusion coefficient through either a bare support membrane (without cells) (D suo ) or extracellular space of a POR-R MCL (D MCL ), k loss is the rate constant for first-order loss (instability) in culture medium, k in and k out are the rate constants for transmembrane transport and k met0 is the rate constant for intracellular metabolism and instability for each compound (N). For metabolites, N-1 represents the previous compound from which the current compound is produced by metabolism. Experimental data was fitted iteratively to derive a tissue diffusion coefficient (DMCL) and metabolic scaling factor (φ i ) to restrain parameter estimates from the cellular PK model (Kin, Kout, Kmet0). The diffusion coefficient for CP-506 across the bare support membrane (Dsup) was determined by solving Eq. 1 with a reaction term only for chemical instability. MCL thicknesses were estimated by fitting the measured [^14C]-urea concentrations to those predicted by Eq. 1 and Eq. 2 without instability or metabolism by using the known diffusion coefficient (DMCL) for [^14C]-urea in HCT-116 MCLs ([Wilson et al., 2004]). The diffusion coefficient (DMCL) for CP-506 in POR-R MCLs was then fitted from the measured concentrations in the donor and receiver compartments of supraoxic experiments by assuming one-directional diffusion in the extracellular space. The metabolic scaling factor (φ i ) was then fitted from the measured concentrations in the donor and receiver compartment of anoxic experiments by fixing parameter estimates to the diffusion coefficient (DMCL) from supraoxic experiments.

[1] = tested on: HCT-116 cells (PORko-G, HCT-116 WT, POR-R); assay: Cellular metabolism assay (LC-MS/MS of reduced metabolites); format: in vitro ADME, human; conditions: for Metabolite concentration, fold lower in PORko-G cells than HCT-116 WT cells / Metabolite concentration, fold higher in POR-R cells than HCT-116 WT cells: after 1 h treatment with 100 µM CP-506, anoxic
Procedure: Aerobic and anoxic conditions were achieved as described above. Cells (5 x 10^5 per well) were seeded with 350 µl medium in duplicate into 24-well plates and left to attach for 2 h in a humidified 37°C incubator. A working solution of CP-506 was prepared in culture medium to achieve a 100 µM concentration in each well after the addition of a 500 µl volume. Plates were exposed to drug for 1 h in a humidified 37°C incubator. Metabolism was then halted by the addition of two-volumes of ice-cold acetonitrile containing 2 µM of internal standard for each analyte. Samples were stored at −80°C until LC-MS/MS analysis.
The LC system for tandem MS consisted of an Agilent 1200 autosampler (4°C) and binary pump, a 3.0 × 50 mm, 1.8-micron Zorbax SB-C18 column (Agilent; PN: 827975-302) and 2.1 × 7 mm guard column (Alltech, IL) maintained at 35°C, at a pressure of <400 bar and flow rate of 0.3 ml/min. The mobile phase comprised a gradient of 0.01% formic acid in 80% acetonitrile - 20% water, v/v (solvent A), and 0.01% formic acid in water (solvent B). Initial mobile phase composition was 20% solvent A and 80% solvent B, increasing to 60% A (0–3 min) then 80% A (3–5.45 min), returning to initial conditions (5.5–6 min). Post-run time was 1 min, and the total run time was […]. Mass spectrometric detection was carried out using an Agilent 6410 triple quadrupole mass spectrometer equipped with a multimode ionization (MMI) source. The mass spectrometer was operated in electrospray positive ionization mode using multiple reaction monitoring (MRM), with Q1 & Q3 set to unit resolution ([…]). The electrospray ionization parameters, optimized for the parent molecular ion ([M+H]+) abundance were: drying gas temperature 325°C, vaporiser temperature 150°C, drying gas flow 5 L/min, nebuliser pressure 50 psi, capillary voltage 1.8 kV, Delta EMV 300 V. Ultra-pure nitrogen was used as collision gas. The divert valve feature of the Agilent 6410 triple quadrupole mass spectrometer was utilised to prevent the eluate from entering the ionisation source chamber during the first 0.5 min of each run. For CP-506 samples, positively charged ions representing the [M+H]+ for CP-506 and CP-506-D8 were collisionally dissociated to form specific product ions which were monitored in MS2 (unit resolution). The MRM transition, ionization mode, collision energy, dwell time, fragmentor voltage and retention time for all compounds is provided in Supplementary Table S2. Agilent MassHunter software (v.4.04.00) was used for data acquisition and chromatographic peak integration.

[2] = assumed equivalent to CP-506 for the active metabolites

SMILES	D s: diffusion coefficient in spheroid (POR-R MCLs; [2])	Metabolite concentration, fold lower in PORko-G cells than HCT-116 WT cells [1]	D s: diffusion coefficient in spheroid (POR-R MCLs; DMCL fitted in POR-R MCLs under supraoxic conditions)	DMCL: diffusion coefficient across POR-R MCLs (POR-R MCLs; Table S4, anoxia, fixed to the supraoxic value)	DMCL: diffusion coefficient across POR-R MCLs (POR-R MCLs; Table S4, supraoxia)	DMCL: diffusion coefficient across POR-R MCLs (POR-R MCLs; supraoxic experiments)	Metabolite concentration, fold higher in POR-R cells than HCT-116 WT cells [1]	Metabolite production suppressed in POR knockout relative to the POR-overexpressing cell line ([1]; anoxic, Figure 3A)
CCN1CCN(C(=O)c2cc(N(CCBr)CCOS(C)(=O)=O)c(S(C)(=O)=O)cc2N)CC1 [CP-506M, 2-((4-amino-5-(4-ethylpiperazine-1-carbonyl)-2-(methylsulfonyl)phenyl)(2-bromoethyl)amino)ethyl methanesulfonate]	1.93 × 10^−7 ± 1.8 × 10^−8 cm^2s^−1	4.1 fold	–	–	–	–	–	–
CCN1CCN(C(=O)c2cc(N(CCBr)CCOS(C)(=O)=O)c(S(C)(=O)=O)cc2[N+](=O)[O-])CC1 [CP-506, 2-[(2-bromoethyl)-5-[(4-ethyl-1-piperazinyl)carbonyl]-2-(methylsulfonyl)-4-nitroanilino]ethyl methanesulfonate]	–	–	1.93 × 10^−7 ± 1.8 × 10^−8 cm^2s^−1	1.93 (fixed) x 10^-6 cm^2 s^-1	1.93 ± 0.01 (6) x 10^-6 cm^2 s^-1	1.93 ± 0.011 x 10^−7 cm^2s^−1	–	–
CCN1CCN(C(=O)c2cc(N(CCCl)CCCl)c(S(C)(=O)=O)cc2N)CC1 [CP-506M-Cl2, (2-Amino-5-(bis(2-chloroethyl)amino)-4-(methylsulfonyl)phenyl)(4-ethylpiperazin-1-yl)methanone]	1.93 × 10^−7 ± 1.8 × 10^−8 cm^2s^−1	17.7 fold	–	–	–	–	8.6 fold	151 fold
CCN1CCN(C(=O)c2cc(N(CCBr)CCOS(C)(=O)=O)c(S(C)(=O)=O)cc2NO)CC1 [CP-506H, 2-((2-bromoethyl)(5-(4-ethylpiperazine-1-carbonyl)-4-(hydroxyamino)-2-(methylsulfonyl)phenyl)amino)ethyl methanesulfonate]	1.93 × 10^−7 ± 1.8 × 10^−8 cm^2s^−1	–	–	–	–	–	5.5 fold	–
